8 compounds from patent publication US20090318534A1, “METHODS AND COMPOSITIONS FOR THE TREATMENT OF SKIN DISEASES AND DISORDERS” (THE REGENTS OF THE UNIVERSITY OF CALIFORNIA, priority 2006, published 2009) can be followed below.

“Also recorded” adds a separate entry of the source.

The test system of data set [1] is protease activity in rosacea skin. Kind of data set: Skin protease activity (BODIPY FL casein substrate) of rosacea skin extracts with protease inhibitors. Type of data set: biochemical, human. To be noted: tape-stripped rosacea facial skin extracts, FITC/BODIPY FL casein, 37° C. 24 h; 20 μg/ml aprotinin, 200 μM AEBSF; FIG. 3k. The procedure: Skin protease activity. To obtain skin surface protease, facial skin was tape-stripped 20 times then immersed in 1 ml 1 M acetic acid and incubated 4° C. overnight, extracts were lyophilized and the pellet dissolved in 40 μl of 1×PBS, pH 7.4. Protease activity was monitored with EnzCheck® Protease Assay Kit green fluorescence (Molecular Probes, Inc., Eugene, Oreg.) according to manufacturer's instructions. Briefly, 10 μl of the aqueous solution collected from the skin surface was mixed with 190 μl of BODIPY FL casein substrate in 10 mM Tris-HCl, pH 7.8, and incubated at 37° C. for 24 h. Protease activity was monitored as increased fluorescence with SpectraMax GEMINI EM (Molecular Devices Corporation, Sunnyvale, Calif.). In some experiments protease inhibitors were added including mixed protease inhibitors (Complete EDTA-free, 1 tablet/50 ml; Roche, Indianapolis, Ind.), 200 μg/ml bestatin, 20 μg/ml E-64, and 20 μg/ml aprotinin (Sigma-Aldrich, St. Louis, Mo.), 200 μM 4-(2-aminoethyl)-benzenesulfonylfluoride (AEBSF), 200 μM human neutrophil elastase inhibitor (methoxysuccinyl-Ala-Ala-Pro-Ala-chloromethyl ketone), 200 μM human leukocyte elastase inhibitor (methoxysuccinyl-Ala-Ala-Pro-Val-chloromethylketone, Calbiochem, San Diego, Calif.).

In data set [2] the target is T1, kallikrein stratum corneum tryptic enzyme (SCTE) (Homo sapiens, UniProt Q9Y337).
T1 sequence (Q9Y337 23-293): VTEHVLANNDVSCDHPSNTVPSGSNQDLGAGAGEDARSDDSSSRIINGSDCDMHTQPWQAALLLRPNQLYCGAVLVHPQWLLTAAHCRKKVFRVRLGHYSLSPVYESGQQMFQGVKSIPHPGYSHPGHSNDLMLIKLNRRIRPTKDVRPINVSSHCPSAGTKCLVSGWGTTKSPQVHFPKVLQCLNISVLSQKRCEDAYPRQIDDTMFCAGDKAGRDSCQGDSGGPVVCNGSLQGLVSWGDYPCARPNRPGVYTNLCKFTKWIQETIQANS
In words: Inhibition of SCTE in vitro. It is filed as biochemical. The text has this: In one aspect of the disclosure, a method of treatment of inflammatory diseases and disorders, rosacea and or acnes comprises inhibiting cathelicidin expression or activity. Examples of compositions and methods for inhibiting the expression of cathelicidins include antisense, ribozyme and gene therapy techniques. For example, rosacea can be inhibited or treated using antisense or ribozyme therapies that reduce the expression of cathelicidin. In one aspect, a vitamin D inhibitor, or vitamin D receptor antagonist can be used to reduce expression of a cathelicidin. Examples of compositions and methods for inhibiting cathelicidin activity include antibodies and small molecule agents. In one aspect, the treatment is at the site of inflammation through topical inhibition of Vitamin D activity, inhibiting of a Vitamin D receptor activity, or an inhibitor of a protease that cleaves full length cathelicidin into its active fragments is provided. For example, a method of the disclosure comprises inhibiting the kallikrein stratum corneum tryptic enzyme (SCTE), an enzyme that cleaves the cathelicidin precursor protein.

Data set [3] relates to Normal human keratinocytes. Kind of data set: Measurement of IL-8 release. To be noted: peptides 3.2 μM, 6 h, ELISA; FIG. 4a. Type of data set: cell-based. On the procedure: Measurement of IL-8 release. Normal human keratinocytes (Cascade Biologics) were grown in EpiLife medium (Cascade Biologics) supplemented with 0.06 mM Ca2, 1% EpiLife defined growth supplement, and 1% penicillin/streptomycin (Invitrogen Life Technologies). Cells were grown at 37° C. in a humidified atmosphere of 5% CO2 and 95% air. Human keratinocytes were cultured to confluence and treated with the cathelicidin peptides (3.2 μM) for 6 h. Supernatants were collected and placed in a sterile 96-well plate for ELISA. IL-8 production was determined by ELISA (R&D systems) according to the manufacturer's instructions.
For orientation: An ELISA detects its analyte on a solid surface through an enzyme-linked reagent.

Data set [4] concerns mouse skin. Kind of data set: Mouse skin inflammation model, subcutaneous injection of cathelicidin peptides. Type of data set: in vivo, Balb/C and C57/B16 mice. To be noted: for skin inflammation (erythema, vascular dilatation) / histology of injected skin: 320 μM in 40 μl; for skin inflammation (erythema, vascular dilatation): injected twice a day for 2 d, assessed after 48 hr; for histology of injected skin: biopsy after 48 hr. The procedure:
Mouse skin inflammation models. All animal procedures were approved by the Veterans Affairs (VA) San Diego Healthcare System subcommittee on animal studies. Balb/C and C57/B16 mice shaved 24 h prior to treatments and injected subcutaneously on the back with 40 μl of peptide (320 μM) twice a day. Forty-eight h after initial injection (total 4 injections), skin inflammation was assessed by the severity of erythema and edema, then biopsied for histology.
Mouse skin inflammation models. Balb/C or […] mice shaved 24 h prior to treatments were injected subcutaneously on the back with 40 μl of peptide at different concentrations (320, 32, 3.2, 0.32 μM, and PBS as 0 μM) twice a day. Forty-eight h after initial injection (total 4 injection), skin inflammation was assessed by the severity of erythema and edema. Skin was then biopsied for hematoxlin eosin staining to examine the histopathological changes. Frozen sections were also prepared and processed for immunostaining that included rat monoclonal anti-mouse Ly-6G (BD Biosciences, San Jose, Calif.) or rat monoclonal anti-mouse CD31 (BD Biosciences). Goat anti-rat IgG conjugated to FITC (Abcam Inc., Cambridge, Mass.) was used as the secondary antibody. Nuclei were stained with DAPI and sections were mounted in ProLong Anti-Fade reagent (Molecular Probes). Images were obtained using an Olympus BX41 microscope (Scientific Instrument Company, Temecula, Calif.).

In data set [5] the test system is mouse skin. Kind of data set: Subcutaneous injection of SCTE in mice, skin inflammation and cathelicidin processing. It is filed as in vivo. On the procedure: Skin from Spink5^−/− mice had altered expression of cathelicidin peptides similar to that seen in rosacea (FIG. 4i). The main peak was GLL-34 (m/z 3,877; FIG. 4i, arrowhead), a mouse cathelicidin peptide similar in activity to human LL-37. Like LL-37, GLL-34 was not detected in wild-type mouse littermates with normal serine protease activity. […] To determine whether an increase in SCTE results in greater inflammation, SCTE was injected subcutaneously in a manner similar to that used for the cathelicidin peptides themselves. The amount of SCTE in human skin is as high as 2-13 ng per mg of dry weight of skin. From the data of the protease assay, the amount of serine protease activity in lesional skin of individuals with rosacea was estimated to be as high as 500 ng of tryptic kallikrein per mg of dry weight of skin. Therefore, […] of SCTE was injected twice a day for 2 d to mimic local concentrations seen in rosacea. […] Therefore, the increase in SCTE observed in rosacea would account for the pathological changes observed this disease.

Data set [6] deals with T2, mouse cathelicidin (UniProt P51437).
T2 sequence: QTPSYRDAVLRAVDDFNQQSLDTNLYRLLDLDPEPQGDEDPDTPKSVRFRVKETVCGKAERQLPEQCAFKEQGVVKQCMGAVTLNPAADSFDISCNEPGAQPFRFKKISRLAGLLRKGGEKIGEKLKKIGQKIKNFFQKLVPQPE

Consider `NCCc1ccc(S(=O)(=O)F)cc1` [AEBSF, 4-(2-aminoethyl)-benzenesulfonylfluoride], for which the “protease activity in rosacea skin” value in data set [1] is recorded as “completely suppressed protease activity; also recorded: effective in eliminating activity”. Further, the “inhibition of SCTE in vitro” value in data set [2] is recorded as “can inhibit this enzyme in vitro”.
“DI-27: synthetic cathelicidin peptide DISCDKDNKRFALLGDFFRKSKEKIGK (SEQ ID NO:7) (Partial Peptide Sequence from TOF-MS)”: in data set [3], the “secretion of IL-8 from cultured human keratinocytes” value (“secretion” below) is recorded as “did not”.
Take “FA-29: synthetic cathelicidin peptide FALLGDFFRKSKEKIGKEFKRIVQRIKDF (SEQ ID NO:10) (Partial Peptide Sequence from TOF-MS)”: the “skin inflammation (erythema, vascular dilatation)” value in data set [4] was “induced erythema and vascular dilatation”. The “histology of injected skin” value in data set [4] (twice a day for 2 d) is “neutrophilic infiltrate, thrombosis and hemorrhage”. For the same compound, in data set [3], the “secretion” value is “induced secretion of IL-8”.
For the compound “KR-20: synthetic cathelicidin peptide KRIVQRIKDFLRNLVPRTES (SEQ ID NO:15)”, the “skin inflammation (erythema, vascular dilatation)” value in data set [4] is given as “did not induce inflammation”. For the same compound, the “secretion” value in data set [3] is on record as “did not induce cytokine release”.
As to “LL-37: synthetic cathelicidin peptide LLGDFFRKSKEKIGKEFKRIVQRIKDFLRNLVPRTES (SEQ ID NO:14) (Partial Peptide Sequence from TOF-MS)”, in data set [4], the “skin inflammation (erythema, vascular dilatation)” value was “induced erythema and vascular dilatation”. In data set [4] (twice a day for 2 d), the “histology of injected skin” value is “neutrophilic infiltrate, thrombosis and hemorrhage”. In data set [4] (320-0.32 μM, 40 μl, twice a day for 2 d, FIG. 7d, Balb/C and C57/B16), the “lowest concentration with dose-dependent inflammatory reaction” value is 3.2 µM. Moreover, the “secretion” value in data set [3] is “induced secretion of IL-8”.
“SCTE: kallikrein SCTE (stratum corneum tryptic enzyme, KLK5), serine protease that cleaves cathelicidin precursor”: the “cell infiltration after SCTE injection in Camp−/− mice compared with wild type mice” value in data set [5] (Camp−/− versus wild type, infiltrated cells per HPF, n=4, P<0.05) is “considerably less cell infiltration; also recorded: significantly less cell infiltration”. In addition, in data set [5] (active SCTE injected subcutaneously twice a day for 2 d, versus control (boiled SCTE)), the “skin inflammation and cathelicidin processing after SCTE injection” value was “induced erythema and inflammatory cell infiltration accompanied by processing of cathelicidin peptide; also recorded: showed inflammation and processed cathelicidin peptide”.
Regarding aprotinin, the “protease activity in rosacea skin” value in data set [1] is “completely suppressed protease activity; also recorded: effective in eliminating activity”. Further, the “inhibition of SCTE in vitro” value in data set [2] is reported as “can inhibit this enzyme in vitro”.
stratum corneum tryptic enzyme (SCTE): the “cathelicidin processing in mouse skin after subcutaneous SCTE injection (SELDI-TOF-MS)” value in data set [6] was “SCTE-treated skin showed inflammation and processed cathelicidin peptide (m/z 4,244, sequence FKKISRLAGLLRKGGEKIGEKLKKIGQKIKNFFQKLV (SEQ ID NO:3))”.
